Data reported in PubChem BioAssay (NCI).
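96-well plates; 48 h exposure; 5 concentrations. Endpoints by linear interpolation between flanking doses. Not reached: highest tested concentration assigned. GI50: concentration for 50% inhibition of growth. The concentration for full growth arrest is given as TGI.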

Key:
Experiment in all cases: NCI tumour cell line growth inhibition, 48 h
OVCAR-5 ovarian = system: OVCAR-5 ovarian
LOX IMVI melanoma = system: LOX IMVI melanoma
HCT-15 colon = system: HCT-15 colon
A549 NSCLC = system: A549 NSCLC
786-0 renal = system: 786-0 renal
NCI-H23 lung = system: NCI-H23 lung
RPMI-8226 leukemia = system: RPMI-8226 leukemia
HOP-92 NSCLC = system: HOP-92 NSCLC
SNB-19 CNS = system: SNB-19 CNS
EKVX NSCLC = system: EKVX NSCLC
SF-268 CNS = system: SF-268 CNS
M14 melanoma = system: M14 melanoma
SK-MEL-28 melanoma = system: SK-MEL-28 melanoma
TK-10 renal = system: TK-10 renal
DU-145 prostate = system: DU-145 prostate
SK-OV-3 ovarian = system: SK-OV-3 ovarian
RXF 393 renal = system: RXF 393 renal
OVCAR-4 ovarian = system: OVCAR-4 ovarian
HOP-62 NSCLC = system: HOP-62 NSCLC
SNB-75 CNS = system: SNB-75 CNS
KM12 colon = system: KM12 colon
SN12C renal = system: SN12C renal
SK-MEL-5 melanoma = system: SK-MEL-5 melanoma
K-562 leukemia = system: K-562 leukemia
COLO 205 colon = system: COLO 205 colon
SK-MEL-2 melanoma = system: SK-MEL-2 melanoma
HCT-116 colon = system: HCT-116 colon
NCI/ADR-RES ovarian = system: NCI/ADR-RES ovarian
ACHN renal = system: ACHN renal
SF-539 CNS = system: SF-539 CNS
MALME-3M melanoma = system: MALME-3M melanoma
OVCAR-8 ovarian = system: OVCAR-8 ovarian
A498 renal = system: A498 renal
MOLT-4 leukemia = system: MOLT-4 leukemia
HT29 colon = system: HT29 colon
NCI-H226 lung = system: NCI-H226 lung
UO-31 renal = system: UO-31 renal
UACC-257 melanoma = system: UACC-257 melanoma
T-47D breast = system: T-47D breast
MCF7 breast = system: MCF7 breast
MDA-MB-231 breast = system: MDA-MB-231 breast
MDA-MB-435 = system: MDA-MB-435
CCRF-CEM leukemia = system: CCRF-CEM leukemia
UACC-62 melanoma = system: UACC-62 melanoma
CAKI-1 renal = system: CAKI-1 renal
IGROV1 ovarian = system: IGROV1 ovarian
NCI-H522 lung = system: NCI-H522 lung
SW-620 colon = system: SW-620 colon
U251 CNS = system: U251 CNS
HS 578T breast = system: HS 578T breast
OVCAR-3 ovarian = system: OVCAR-3 ovarian
BT-549 breast = system: BT-549 breast
PC-3 prostate = system: PC-3 prostate
SF-295 CNS = system: SF-295 CNS
NCI-H460 lung = system: NCI-H460 lung
HL-60(TB) leukemia = system: HL-60(TB) leukemia
HCC-2998 colon = system: HCC-2998 colon

Q: `O=C1c2[nH]cc(CN3CCN(CCO)CC3)c2C(=O)c2c1c(O)c1ccccc1c2O` was tested. Which GI50 (OVCAR-5 ovarian) did it give?
A: 16.5 µM

Q: What about the TGI (OVCAR-5 ovarian) of the same compound?
A: 33 µM

Q: What about the GI50 (LOX IMVI melanoma) of the same compound?
A: 1.95 µM

Q: What about the TGI (LOX IMVI melanoma) of the same compound?
A: 6.34 µM

Q: And the GI50 (HCT-15 colon)?
A: 2.87 µM

Q: What about the TGI (HCT-15 colon) of the same compound?
A: 18.6 µM

Q: What about the GI50 (A549 NSCLC) of the same compound?
A: 7.15 µM

Q: What about the TGI (A549 NSCLC) of the same compound?
A: 24.4 µM

Q: What about the GI50 (786-0 renal) of the same compound?
A: 2.65 µM

Q: What about the TGI (786-0 renal) of the same compound?
A: 11 µM

Q: What about the GI50 (NCI-H23 lung) of the same compound?
A: 14.9 µM

Q: What about the TGI (NCI-H23 lung) of the same compound?
A: 39.4 µM

Q: What about the GI50 (RPMI-8226 leukemia) of the same compound?
A: 1.52 µM

Q: And the TGI (RPMI-8226 leukemia)?
A: 4.16 µM

Q: What about the GI50 (HOP-92 NSCLC) of the same compound?
A: 1.14 µM

Q: And the TGI (HOP-92 NSCLC)?
A: 9.56 µM

Q: And the GI50 (SNB-19 CNS)?
A: 14.8 µM

Q: And the TGI (SNB-19 CNS)?
A: 32.5 µM

Q: And the GI50 (EKVX NSCLC)?
A: 8.14 µM

Q: What about the TGI (EKVX NSCLC) of the same compound?
A: 22.5 µM

Q: What about the GI50 (SF-268 CNS) of the same compound?
A: 5.9 µM

Q: What about the TGI (SF-268 CNS) of the same compound?
A: 24.2 µM

Q: What about the GI50 (M14 melanoma) of the same compound?
A: 1.69 µM

Q: What about the TGI (M14 melanoma) of the same compound?
A: 3.86 µM

Q: What about the GI50 (SK-MEL-28 melanoma) of the same compound?
A: 13.6 µM

Q: And the TGI (SK-MEL-28 melanoma)?
A: 28.7 µM

Q: What about the GI50 (TK-10 renal) of the same compound?
A: 0.36 µM

Q: What about the TGI (TK-10 renal) of the same compound?
A: 6.78 µM

Q: And the GI50 (DU-145 prostate)?
A: 4.53 µM

Q: And the TGI (DU-145 prostate)?
A: 18.2 µM

Q: What about the GI50 (SK-OV-3 ovarian) of the same compound?
A: 18.7 µM

Q: What about the TGI (SK-OV-3 ovarian) of the same compound?
A: 37.5 µM

Q: And the GI50 (RXF 393 renal)?
A: 6.03 µM

Q: And the TGI (RXF 393 renal)?
A: 22.9 µM

Q: What about the GI50 (OVCAR-4 ovarian) of the same compound?
A: 13.3 µM

Q: And the TGI (OVCAR-4 ovarian)?
A: 29.4 µM

Q: What about the GI50 (HOP-62 NSCLC) of the same compound?
A: 1.92 µM

Q: And the TGI (HOP-62 NSCLC)?
A: 15 µM

Q: And the GI50 (SNB-75 CNS)?
A: 14.2 µM

Q: And the TGI (SNB-75 CNS)?
A: 32.8 µM

Q: And the GI50 (KM12 colon)?
A: 1.62 µM

Q: And the TGI (KM12 colon)?
A: 3.91 µM

Q: What about the GI50 (SN12C renal) of the same compound?
A: 2.18 µM

Q: And the TGI (SN12C renal)?
A: 9.92 µM

Q: And the GI50 (SK-MEL-5 melanoma)?
A: 1.12 µM

Q: And the TGI (SK-MEL-5 melanoma)?
A: 3.27 µM

Q: What about the GI50 (K-562 leukemia) of the same compound?
A: 2.17 µM

Q: What about the TGI (K-562 leukemia) of the same compound?
A: > 100 µM

Q: What about the GI50 (COLO 205 colon) of the same compound?
A: 16.4 µM

Q: And the TGI (COLO 205 colon)?
A: 47.4 µM

Q: What about the GI50 (SK-MEL-2 melanoma) of the same compound?
A: 2.77 µM

Q: And the TGI (SK-MEL-2 melanoma)?
A: 8.06 µM

Q: What about the GI50 (HCT-116 colon) of the same compound?
A: 1.76 µM

Q: What about the TGI (HCT-116 colon) of the same compound?
A: 5.47 µM

Q: And the GI50 (NCI/ADR-RES ovarian)?
A: 9.64 µM

Q: What about the TGI (NCI/ADR-RES ovarian) of the same compound?
A: 28.3 µM

Q: What about the GI50 (ACHN renal) of the same compound?
A: 5.38 µM

Q: What about the TGI (ACHN renal) of the same compound?
A: 23.3 µM

Q: And the GI50 (SF-539 CNS)?
A: 1.52 µM

Q: And the TGI (SF-539 CNS)?
A: 3.11 µM

Q: What about the GI50 (MALME-3M melanoma) of the same compound?
A: 7.69 µM

Q: What about the TGI (MALME-3M melanoma) of the same compound?
A: 24.9 µM

Q: And the GI50 (OVCAR-8 ovarian)?
A: 5.52 µM

Q: And the TGI (OVCAR-8 ovarian)?
A: 17.7 µM

Q: And the GI50 (A498 renal)?
A: 13.2 µM

Q: What about the TGI (A498 renal) of the same compound?
A: 27.8 µM

Q: And the GI50 (MOLT-4 leukemia)?
A: 1.38 µM

Q: What about the TGI (MOLT-4 leukemia) of the same compound?
A: 9.48 µM

Q: What about the GI50 (HT29 colon) of the same compound?
A: 12.3 µM

Q: What about the TGI (HT29 colon) of the same compound?
A: 31.6 µM

Q: And the GI50 (NCI-H226 lung)?
A: 10.5 µM

Q: And the TGI (NCI-H226 lung)?
A: 28.4 µM

Q: What about the GI50 (UO-31 renal) of the same compound?
A: 3.82 µM

Q: What about the TGI (UO-31 renal) of the same compound?
A: 18.8 µM

Q: And the GI50 (UACC-257 melanoma)?
A: 8.33 µM

Q: And the TGI (UACC-257 melanoma)?
A: 25.2 µM

Q: And the GI50 (T-47D breast)?
A: 19.2 µM

Q: And the TGI (T-47D breast)?
A: 38.6 µM

Q: And the GI50 (MCF7 breast)?
A: 5.63 µM

Q: And the TGI (MCF7 breast)?
A: 21.9 µM

Q: And the GI50 (MDA-MB-231 breast)?
A: 4.89 µM

Q: What about the TGI (MDA-MB-231 breast) of the same compound?
A: 16.3 µM

Q: What about the GI50 (MDA-MB-435) of the same compound?
A: 1.84 µM

Q: And the TGI (MDA-MB-435)?
A: 4.14 µM

Q: What about the GI50 (CCRF-CEM leukemia) of the same compound?
A: 1.63 µM

Q: And the GI50 (UACC-62 melanoma)?
A: 4.53 µM

Q: What about the TGI (UACC-62 melanoma) of the same compound?
A: 9.01 µM

Q: What about the GI50 (CAKI-1 renal) of the same compound?
A: 5.45 µM

Q: And the TGI (CAKI-1 renal)?
A: 14.2 µM

Q: What about the GI50 (IGROV1 ovarian) of the same compound?
A: 1.61 µM

Q: And the TGI (IGROV1 ovarian)?
A: 15.1 µM

Q: And the GI50 (NCI-H522 lung)?
A: 2.08 µM

Q: And the TGI (NCI-H522 lung)?
A: 9.05 µM

Q: And the GI50 (SW-620 colon)?
A: 1.68 µM

Q: And the TGI (SW-620 colon)?
A: 3.48 µM

Q: What about the GI50 (U251 CNS) of the same compound?
A: 5.31 µM

Q: What about the TGI (U251 CNS) of the same compound?
A: 25.9 µM

Q: What about the GI50 (HS 578T breast) of the same compound?
A: 8.14 µM

Q: What about the TGI (HS 578T breast) of the same compound?
A: 24.4 µM

Q: And the GI50 (OVCAR-3 ovarian)?
A: 4 µM

Q: And the TGI (OVCAR-3 ovarian)?
A: 16.3 µM

Q: What about the GI50 (BT-549 breast) of the same compound?
A: 13.8 µM

Q: What about the TGI (BT-549 breast) of the same compound?
A: 28.6 µM

Q: And the GI50 (PC-3 prostate)?
A: 2.7 µM

Q: What about the TGI (PC-3 prostate) of the same compound?
A: 8.78 µM

Q: What about the GI50 (SF-295 CNS) of the same compound?
A: 2.56 µM

Q: And the TGI (SF-295 CNS)?
A: 10.9 µM

Q: What about the GI50 (NCI-H460 lung) of the same compound?
A: 2.69 µM

Q: What about the TGI (NCI-H460 lung) of the same compound?
A: 12.3 µM

Q: And the GI50 (HL-60(TB) leukemia)?
A: 2.83 µM

Q: What about the TGI (HL-60(TB) leukemia) of the same compound?
A: 48.9 µM

Q: And the GI50 (HCC-2998 colon)?
A: 6.51 µM

Q: And the TGI (HCC-2998 colon)?
A: 21.1 µM
